In patent publication US3931174A, “Alkylmercaptomethylquinoxaline-1,4-dioxides and oxidized derivatives thereof” (Pfizer Inc., priority 1974, dated 1976):
Values after ≈ are worked out from the molar mass of the structure shown.

Tests used:
Streptococcus pyogenes [1] = experiment: In vivo survivors (SC route), Strep. pyogenes infection; settings: SC route (subcutaneous); for responders at 100 mg/kg: 100 mg./kg. (footnote b)
Excerpt: (§1) The in vitro and in vivo activities of compounds within this invention versus Streptococcus pyogenes and Escherichia coli are presented below: ##SPC4##

Streptococcus pyogenes [2] = experiment: In vitro MIC, anaerobic agar dilution, Strep. pyogenes; type: cell-based; settings: brain-heart infusion agar, 37°C.
Protocol: (§2) The in vitro activities are determined under anaerobic conditions in the following manner. Appropriate serial two-fold dilutions of the compounds are mixed with molten brain-heart infusion agar in sterile petri dishes and allowed to solidify. The bacterial cells (approximately 10^5 -10^6 cells) are placed on the top of the agar plate with a Steers replicating device. The plates are incubated at 37°C. in the anaerobic conditions achieved by a Gas Pak (BBL, Cockeysville, […].). The M.I.C. […] The in vitro and in vivo activities of compounds within this invention versus Streptococcus pyogenes and Escherichia coli are presented below: ##SPC4##

Escherichia coli [3] = experiment: In vitro MIC, anaerobic agar dilution, E. coli; type: cell-based; settings: brain-heart infusion agar, 37°C.
Protocol: as §2

Escherichia coli [4] = experiment: In vivo survivors (SC route), E. coli infection; settings: SC route (subcutaneous); for responders at 100 mg/kg: 100 mg./kg. (footnote b)
Excerpt: as §1

| Structure (SMILES) | responders at 50 mg/kg (Streptococcus pyogenes [1]) [%] | MIC (Streptococcus pyogenes [2]) [µg/mL] | MIC (Escherichia coli [3]) [µg/mL] | responders at 25 mg/kg (Escherichia coli [4]) [%] | responders at 100 mg/kg (Streptococcus pyogenes [1]) [%] | responders at 100 mg/kg (Escherichia coli [4]) [%] |
| --- | --- | --- | --- | --- | --- | --- |
| Cc1c(CS(C)(=O)=O)[n+]([O-])c2ccccc2[n+]1[O-] [CH3 SO2 --CH3] | 10 | 1.56 (≈ 5.82 µM) | 3.12 (≈ 11.6 µM) | 70 | – | – |
| Cc1c(C[S+](C)[O-])[n+]([O-])c2ccccc2[n+]1[O-] (centres unmarked) [CH3 SO--CH3, 2-methyl-3-methylsulfinylmethylquinoxaline 1,4-dioxide] | 20 | 25 (≈ 99.1 µM) | > 200 | 10 | – | – |
| CCCSCc1c[n+]([O-])c2ccccc2[n+]1[O-] [H S--CH2 CH2 CH3, 2-n-propylthiomethylquinoxaline 1,4-dioxide] | 0 | 50 (≈ 200 µM) | 50 (≈ 200 µM) | 60 | – | – |
| CSCc1c[n+]([O-])c2ccccc2[n+]1[O-] [H S--CH3, 2-methylthiomethylquinoxaline 1,4-dioxide] | – | 1.56 (≈ 7.03 µM) | 1.56 (≈ 7.03 µM) | – | 50 | 70 |
| CCCS(=O)(=O)Cc1c[n+]([O-])c2ccccc2[n+]1[O-] [H SO2 --CH2 CH2 CH3] | 90 | 3.12 (≈ 11.1 µM) | 25 (≈ 88.6 µM) | 90 | – | – |
| CCS(=O)(=O)Cc1c[n+]([O-])c2ccccc2[n+]1[O-] [H SO2 --CH2 CH3, 2-Ethylsulfonylmethylquinoxaline-1,4-Dioxide] | 100 | < 0.391 | < 0.391 | 100 | – | – |
| CS(=O)(=O)Cc1c[n+]([O-])c2ccccc2[n+]1[O-] [H SO2 --CH3, 2-Methylsulfonylmethylquinoxaline 1,4-Dioxide] | 90 | < 0.391 | < 0.391 | 100 | – | – |
| CC(C)S(=O)(=O)Cc1c[n+]([O-])c2ccccc2[n+]1[O-] [H SO2 --CH(CH3)2] | 100 | 1.56 (≈ 5.53 µM) | 0.781 (≈ 2.77 µM) | 90 | – | – |
| CCC[S+]([O-])Cc1c[n+]([O-])c2ccccc2[n+]1[O-] (centres unmarked) [H SO--CH2 CH2 CH3, 2-n-propylsulfinylmethylquinoxaline 1,4-dioxide] | 60 | 1.56 (≈ 5.87 µM) | 6.25 (≈ 23.5 µM) | 50 | – | – |
| CC[S+]([O-])Cc1c[n+]([O-])c2ccccc2[n+]1[O-] (centres unmarked) [H SO--CH2 CH3, 2-Ethylsulfinylmethylquinoxaline 1,4-Dioxide] | 20 | 0.781 (≈ 3.1 µM) | 3.12 (≈ 12.4 µM) | 90 | – | – |
| C[S+]([O-])Cc1c[n+]([O-])c2ccccc2[n+]1[O-] (centres unmarked) [H SO--CH3, 2-Methylsulfinylmethylquinoxaline 1,4-Dioxide] | – | < 0.391 | < 0.391 | – | 30 | 100 |
